Like-named read-outs stand apart in the source and are kept apart here.
Tested on: male dd-mice
Assay: anti-apomorphine activity in mice (inhibition of motor activity after apomorphine, animex)
Format: in vivo
Conditions: Mus musculus, po, read-out: Anti-apomorphine activity ED50 (dose which inhibited the motor activity by 50% as compared with the control)
Method: Groups of 5 male dd-mice (20-25 g body weight) each were used. Apomorphine hydrochloride (0.5 mg/kg) was subcutaneously administered 60 minutes after oral administration of test compound. Immediately after the apomorphine treatment, motor activity was determined for 20 minutes by animex. For the control groups, 0.5% methylcellulose solution was administered instead of test compound. The ED50, a dose which inhibited the motor activity by 50% as compared with the control, was determined.

[1] = male dd-mice, p.o., 60 min before apomorphine hydrochloride 0.5 mg/kg s.c., motor activity for 20 min by animex

Compound	ED50 [1] [mg/kg]	ED50 [mg/kg]
O=c1[nH]c2ccccc2n1C1CCN(CC2=NOC(c3ccc(F)cc3)C2)CC1 (stereo not shown) [A, 1-[5-(4-Fluorophenyl)-4,5-dihydroisoxazol-3-ylmethyl]-4-(2-oxo-1-benzimidazolinyl)piperidine]	1.7	–
O=c1[nH]c2cc(F)ccc2n1C1CCN(CC2=NOC(c3ccc(F)cc3)C2)CC1 (stereo not shown) [B, 1-[5-(4-Fluorophenyl)-4,5-dihydroisoxazol-3-ylmethyl]-4-(5-fluoro-2-oxo-1-benzimidazolinyl)piperidine]	2.1	–
OC1(c2ccc(Cl)cc2)CCN(CC2=NOC(c3ccc(F)cc3)C2)CC1 (stereo not shown) [C, 1-[5-(4-Fluorophenyl)-4,5-dihydroisoxazol-3-ylmethyl]-4-(4-chlorophenyl)-4-hydroxypiperidine]	–	3.4
CN1CCN(C2=Nc3cc(Cl)ccc3Nc3ccccc32)CC1 [Clozapine, reference compound]	10	–
